# Measured values published in patent publication US11426371B2, “Compositions and methods for treating cancer” (University of Virginia Patent Foundation, priority 2017, dated 2022).
# “Also recorded” adds a separate entry of the source. Like-named read-outs stand apart in the source and are kept apart here.
# Key:
# acid ceramidase (AC) [1] = biological target: T1, acid ceramidase (AC) (Homo sapiens, UniProt Q13510); assay: AC inhibition in lysates from cells overexpressing the enzyme; type: biochemical; parameters: expressed in transfected cells
# T1 sequence (Q13510 143-395 limits assumed): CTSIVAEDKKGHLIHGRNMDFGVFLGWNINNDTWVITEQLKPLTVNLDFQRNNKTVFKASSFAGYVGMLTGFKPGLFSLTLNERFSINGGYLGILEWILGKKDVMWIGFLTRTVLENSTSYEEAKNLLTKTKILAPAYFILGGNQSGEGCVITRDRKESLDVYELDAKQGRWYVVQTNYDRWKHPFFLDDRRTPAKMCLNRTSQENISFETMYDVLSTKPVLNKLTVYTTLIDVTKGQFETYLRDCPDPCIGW
# T1 sequence (Q13510 22-142 limits assumed): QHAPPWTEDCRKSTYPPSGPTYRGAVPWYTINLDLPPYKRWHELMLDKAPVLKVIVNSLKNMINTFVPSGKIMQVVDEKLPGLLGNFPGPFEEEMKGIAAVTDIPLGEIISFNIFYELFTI
# hAML cell lines = assay: Time course studies of apoptosis and mitochondrial membrane depolarization; type: cell-based, human
# [2] = system: Human AML cell lines (n = 30); assay: Cell viability, average over the panel of AML cell lines; type: cell-based; conditions: mean over 30 human AML cell lines
# Protocol: Representative human AML cell lines (FIG. 2A; upper and lower panels) HL60/VCR and (FIG. 2B; upper and lower panels) OCI-AML2 were treated with SACLAC for 24 and 48 hours. Viability was assessed by MTS assay at 24 and 48 hours and apoptosis was assessed by flow cytometry at 48 hours. Upper panels represent % viability and lower panels indicate % apoptosis.
# Two representative human-derived AML cell lines, HL60/VCR and OCI-AML2, are shown. These studies have been expanded to a large panel of additional human AML cell lines (n=30, Table 1).
# MV4-11 hAML xenograft = assay: Human AML cell line mouse xenograft model; type: in vivo; conditions: 5 mg/kg i.v. daily M to F for 18 days in β-HPCD, MV4-11-engrafted NSG mice, p<0.05
# [3] = Solubility in vehicles for i.v. drug delivery; type: physicochemical
# [4] = system: primary AML patient samples; assay: Colony formation of primary AML patient cells; type: cell-based, human; conditions: over several days
# Protocol: Multiple primary patient (Pt) AML cells were treated with various doses of SACLAC and assayed for apoptosis at 48 hours and colony formation over several days. […] The ordinate represents Colonies (as % of control) and the abscissa represents the concentration of SACLAC (μM). Unt=untreated; DMSO=dimethyl sulfoxide vehicle control.
# Further, effects on patient samples strongly support the potential for clinical relevance of SACLAC. […] Based on the data presented here, we propose that use of SACLAC for treatment of AML is novel and clinically promising.
# [5] = SACLAC serum/blood levels after i.p. or i.v. administration; type: in vivo, mouse
# Protocol: FIG. 7 graphically depicts SACLAC levels in mouse blood following administration intraperitoneally (i.p.) at 40 mg/kg body weight or intravenously (i.v.) at 5 mg/kg body weight. The ordinate represents Concentration (nM) and the abscissa Time (hours). DMSO (dimethyl sulfoxide) and β-HPCD (2-hydroxypropyl […]) represent the vehicle for SACLAC delivery.
# Serum concentrations of SACLAC were also determined following administration. (see FIG. 7). […] SACLAC was dissolved in dimethyl sulfoxide (DMSO) or 2-hydroxypropyl-β-cyclodextrin (β-HPCD). Serum levels were determined following injection of free SACLAC (i.p.—in DMSO at 40 mg/kg; or i.v.—5 mg/kg in β-HPCD). […] They also show our ability to generate and characterize in vitro functionality by modifying delivery and delivery systems, monitor PK and evolve our approaches based on experimental results in order to maximize in vivo efficacy.
# acid ceramidase (AC) [6] = biological target: T1, acid ceramidase (AC); assay: AC activity in AML cell lines, fluorogenic AC substrate; type: cell-based; parameters: endogenous in cells; host or cells: HL60/VCR, OCI-AML2, THP-1 human AML cell lines
# Protocol: Ceramide analog SACLAC (FIG. 1A) inhibits AC activity in representative human AML cell lines (FIG. 1B) HL60/VCR and (FIG. 1C) OCI-AML2 after 24 hours. Activity was assessed by incubation with a fluorogenic AC substrate. Published AC inhibitor LCL204 is included for comparison.
# The ordinate represents AC Activity as percent of control and the abscissa represents SACLAC or LCL204 concentration.
# [7] = system: normal samples (PBMCs and/or CD34+ cells); assay: Viability of normal samples, MTS and Cell Titer Glo (FIG. 4, Table 2); type: cell-based; conditions: PBMC
# Protocol: AML cell lines and normal samples (PBMCs and/or CD34+ cells) were treated for 24 hours with SACLAC (FIG. 4A-7 cell lines) and similar AC inhibitor SABRAC (2-bromo-N-((2S,3R)-1,3-dihydroxyoctadecan-2-yl)acetamide) (FIG. 4B-four cell lines). Viability was assessed by MTS and Cell Titer Glo viability assays. EC50 values (FIG. 4C) were graphed to visualize fold-change between AML and normal cells with treatment of each compound. […] Cells tested for SABRAC were HL60/VCR and OCI-AML2 AML cell lines and two normal PBMC control samples (PBMC1 and PBMC2). The same four cell types were tested for SACLAC, as well as the AML cell line THP-1 and two normal CD34+ cell control samples (CD34+1 and CD34+2).
# Next, we tested the toxicity of SACLAC and a similar published AC inhibitor SABRAC^17 to normal hematopoietic cells to ensure that AML cells are selectively targeted by the compound (FIG. 4A). […] This degree of selectivity was unexpected but extremely important for potential clinical use. […] This remarkable increase in selectivity is a surprising discovery that greatly exceeds the predicted similarity in compound behavior that one may expect with a simple substitution of one halogen for another (Cl for Br).
# [8] = Maximum tolerated dose in vivo; conditions: preliminary results (not shown)
# Protocol: Preliminary results (not shown) indicate a maximum tolerated dose in vivo of at least about 50 mg/kg body weight. Pharmacokinetic studies are in progress to measure any accumulation of SACLAC in the blood following treatment. Initial studies are based on doses of 20 or 40 mg/kg body weight.
compound,measurement,setting,value
"CCCCCCCCCCCCCCC[C@@H](O)[C@H](CO)NC(=O)CCl [SACLAC, 2-chloro-N-((2S,3R)-1,3-dihydroxyoctadecan-2-yl)acetamide]",IC50,"acid ceramidase (AC) [1]; irreversible binding to its binding site, read-out: IC50",46.7 nM
same,IC50,"acid ceramidase (AC) [1]; lysates from cells overexpressing the enzyme, read-out: IC50, AC inhibition",46 nM
same,"mitochondrial membrane potential, time course",hAML cell lines; concurrent with apoptosis induction,mitochondrial membrane depolarization
same,"apoptosis, time course",hAML cell lines; time course studies,apoptosis induction
same,EC50,"[2]; 24 h, read-out: EC50 24 h, Average",2300 nM
same,EC50,"[2]; 48 h, read-out: EC50 48 h, Average",1900 nM
same,"leukemic burden (human CD45+ cells, YFP expression, percent double positive cells)",MV4-11 hAML xenograft,reduced leukemic burden
same,solubility in vehicles for i.v. drug delivery,[3],low solubility
same,colony formation,[4],substantially reduced colony formation
same,uptake following i.p. injection,[5]; i.p. injection,suboptimal uptake
same,serum levels,"[5]; i.p., 40 mg/kg in DMSO",low serum levels
same,serum levels,"[5]; i.v., 5 mg/kg in β-HPCD, compared with i.p.",great improvement
same,AC activity,"acid ceramidase (AC) [6]; HL60/VCR and OCI-AML2, 24 hours",decreased AC activity at all tested doses; also recorded: nearly complete inhibition at nanomolar concentrations
same,"AC activity, compared with LCL204","acid ceramidase (AC) [6]; HL60/VCR, THP-1 and OCI-AML2 cells, 24 h",inhibited AC activity more potently than LCL204
same,EC50,"[7]; 24 h, mean of normal samples (PBMCs and/or CD34+ cells), 24 hours, read-out: EC50 Normal",13.5 µM
same,EC50,"[7]; 24 h, normal controls at 24 h, mean ± spread, read-out: EC50, normal controls",13.5 ± 7.1 µM
same,EC50,"[7]; n=10, read-out: mean EC50, normal PMBC and CD34+ controls",6 µM
same,MTD,[8],≥ 50 mg/kg
